Source: PMC11035696, “Prospective de novo drug design with deep interactome learning” (Nature Communications, 2024)

Key:
[1] = Parallel artificial membrane permeability assay (PAMPA); format: in vitro ADME; details: PAMPAPEFF permeation coefficient
Method: (§1) Compounds 1–3 were characterized in a hybrid reporter gene assay for their agoniztic effect on human nuclear receptors PPARα/γ/δ, RXRα, FXRα, RARα in HEK293T cells. Compound 1 was tested in an isothermal titration calorimetry (ITC) assay to measure direct binding affinity to the ligand-binding domain of PPARγ. ADME properties were measured in standardized assays at Roche.
SI11Absorption Distribution Metabolism and Excretion and Toxicity Data
To assess the drug-like characteristics of the newly designed PPAR modulators, a series of tests were conducted covering various aspects of absorption, distribution, metabolism, and excretion (ADME) properties. Specifically, these assessments included the parallel artificial membrane permeability assay (PAMPA) with permeation co- […]
efficients ([…]), LogD measurements, microsomal clearance, hepatocyte clearance, P-glycoprotein (Pgp) efflux ratio and binding and the unbound free fraction. […]
Table S14: Absorption distribution metabolism and excretion (ADME) properties of compounds 1 and 2. The […]
values for […], LogD, protein binding, P-glycoprotein (Pgp) efflux ratio and permeability, and hepato-cyte clearance are presented as the mean and standard deviation, with a sample size of N = 3, i.e., 3 technical replicates each. The values for microsomal clearance and CYP-inhibition represent single point measurements. […]

[2] = target: T1, human PPARα (Homo sapiens, UniProt Q07869); assay: Gal4-hybrid reporter gene assay, PPARα activation; format: cell-based; details: hybrid reporter gene assay, result in words
T1 construct: expressed in transfected cells; host or cells: HEK293T
T1 sequence (Q07869 239-466 limits assumed): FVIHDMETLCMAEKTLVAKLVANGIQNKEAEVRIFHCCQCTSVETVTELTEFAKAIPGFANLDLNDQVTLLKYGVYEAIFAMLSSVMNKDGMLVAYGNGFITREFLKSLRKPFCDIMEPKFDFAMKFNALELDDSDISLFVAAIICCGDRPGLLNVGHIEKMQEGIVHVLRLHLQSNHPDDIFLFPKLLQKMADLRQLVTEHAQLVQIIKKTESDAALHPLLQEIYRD
Method: as §1
PPAR activation was determined in uniform Gal4-hybrid reporter gene assays for the PPARα, PPARγ and PPARδ isoforms in HEK293T cells (German Collection of Microorganisms and Cell Culture GmbH, DSMZ) which were transiently transfected with pFR-Luc (Stratagene, La Jolla, CA, USA; reporter) and pRL-SV40 (Promega, Madison, WI, USA; internal control) and one pFA-CMV-hPPAR-LBD[97] clone, coding for the hinge region and ligand binding domain of the canonical isoform of human PPARα, PPARγ, PPARδ or respectively. Cells were cultured in Dulbecco’s modified Eagle’s medium (DMEM), high glucose supplemented with 10% fetal calf serum (FCS), sodium pyruvate (1 mM), penicillin (100 U ⋅ ml^-1), and streptomycin (100 μg ⋅ ml^-1) at 37 °C and 5% CO2 and seeded in 96-well plates (3 × 10^4 cells per well). After 24 h, medium was changed to Opti-MEM without supplements and cells were transiently transfected using Lipofectamine LTX reagent (Invitrogen) according to the manufacturer’s protocol. Five hours after transfection, cells were incubated with the test compounds in Opti-MEM supplemented with penicillin (100 U ⋅ ml^-1), streptomycin (100 μg ⋅ ml^-1) and 0.1% DMSO for 16 h before luciferase activity was measured using the Dual-Glo Luciferase Assay System (Promega) according to the manufacturer’s protocol on a Tecan Spark luminometer (Tecan Deutschland GmbH, Germany). Firefly luminescence was divided by Renilla luminescence and multiplied by 1000 resulting in relative light units (RLU) to normalize for transfection efficiency and cell growth. Fold activation was obtained by dividing the mean RLU of a test compound by the mean RLU of the untreated control. All samples were tested in at least three biologically independent experiments in duplicates. For dose-response curve fitting and calculation of EC50 values, the equation “[Agonist] versus response (variable slope—four parameters)” was used in GraphPad Prism (version 7.00, GraphPad Software, La Jolla, CA, USA) with fold activation data. The reference agonizts GW7647 (PPARα)[98],[99], pioglitazone (PPARγ)[100],[101] and L165,041 (PPARδ)[102],[103] were used to validate the assays and to monitor assay performance. Nuclear receptor selectivity profiling was performed with corresponding pFA-CMV-hNR-LBD clones and suitable reference agonizts on RARα (pFA-CMV-hRARα-LBD[104], 1 μM tretinoin), LXRα (pFA-CMV-hLXRα-LBD[104], 1 μM TO901317) and RXRα (pFA-CMV-h RXRα-LBD[105], 1 μM Bexarotene).

[3] = target: T2, PPARγ LBD protein (Homo sapiens, UniProt P37231); assay: Isothermal titration calorimetry (ITC); format: binding
T2 construct: PPARγ LBD protein (30 μM, prepared as described previously[106]); made in house
T2 sequence (P37231 238-503 limits assumed): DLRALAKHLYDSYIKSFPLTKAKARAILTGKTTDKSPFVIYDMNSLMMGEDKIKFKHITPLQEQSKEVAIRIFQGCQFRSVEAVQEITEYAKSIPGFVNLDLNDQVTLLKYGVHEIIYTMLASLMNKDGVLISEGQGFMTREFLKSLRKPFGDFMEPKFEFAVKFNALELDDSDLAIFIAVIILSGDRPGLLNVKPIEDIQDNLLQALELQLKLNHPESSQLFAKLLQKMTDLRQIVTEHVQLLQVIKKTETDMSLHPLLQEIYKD
Method: as §1
ITC experiments were conducted on an Affinity ITC instrument (TA Instruments, New Castle, DE) at 25 °C with a stirring rate of 75 rpm. PPARγ LBD protein (30 μM, prepared as described previously[106]) in buffer (20 mM Tris pH 7.5, 150 mM NaCl, 5% glycerol) containing 5% DMSO was titrated with the test compound (1) (100 μM in the same buffer containing 5% DMSO) in 21 injections (1 × 1μl and 20 × 5μl) with an injection interval of 120 s. The test compound was titrated into buffer, and the buffer was titrated to the PPARγ LBD proteins under otherwise identical conditions. The ITC results were analyzed using NanoAnalyze software (TA Instruments, New Castle, DE) with an independent binding model.

| SMILES | Papp [1] [×10⁻⁶ cm/s] | activity on PPARα [2] | molar ratio (ligand per protein) [3] | Kd ([3]; 25 °C, ligand binding domain of PPARγ, read-out: dissociation constant KD) [nM] |
| --- | --- | --- | --- | --- |
| COc1ccc(Oc2ccc3ncn(CCOc4ccc(CCC(=O)O)cc4)c3c2)cc1 [Compound 2] | 3.9 | no discernible impact | – | – |
| Cc1nnc(-c2ccc(OCCCOc3ccc(CCC(=O)O)c(F)c3)c(F)c2)s1 [Compound 1] | – | – | one ligand per protein molecule | 800 ± 100 |
